Laboratory results: US20230135127A1, “COMPOSITIONS AND METHODS FOR DISEASE TREATMENT AND PREVENTION BY PH MODIFIERS AND/OR CELL PROLIFERATION INHIBITORS” (priority 2021, published 2023)
Where a name gives a salt, the structure may show the parent alone. Read-outs that look alike come from different tables or passages of the source.

Legend:
[1] = system: inflammatory infiltration in the lung tissues; test: Asthma model: H&E staining of lung tissue; conditions: i.t. HOAc or HCl; i.p. NaOH
Jurkat cells = system: Jurkat cells
Protocol: Jurkat and Raji tumor cell lines were maintained in Complete RPMI-1640 Medium (RPMI-1640 plus 1× GlutaMAX, 100 U/ml Pen-Strep (Gibco Life Technologies, Grand Island, N.Y., USA), and 5% heat-inactivated fetal bovine serum (FBS) (Atlanta Biologicals, Flowery Branch, Ga., USA)) at 37° C. and 5% CO2. The tumor cells were washed 3 times with saline plus 1% FBS before in vitro treatments with saline or saline plus pH modifiers.
For studies of the effects of pH modifier on proliferating cells, primary thymocytes or lymph node cells (4×10^6 cells/ml) were incubated in FBS comprising 10% of saline or 87.5 mM HCl, HOAc or NaOH prepared in saline in 37° C. water bath for 5 hours before analyses. The tumor cells (2×10^6 cells/ml) were incubated in FBS comprising 10% saline or 87.5 mM HCl, HOAc, or NaOH prepared in saline in 37° C. water bath for 3-5 hours.
Cells were washed 3 times with PBS then stained with Zombie viability dyes at room temperature for 20 minutes. At the end of incubation, 10% volume of FBS was added to absorb excess Zombie dyes. After washes, the cells were stained with conjugated antibodies against surface antigens on ice. As specified in some experiments, the cells were subsequently stained with fluorochrome-conjugated Avidin. For Annexin V staining, cells were washed twice with plain PBS and once with Annexin V binging buffer (10 mM HEPES, pH7.4, 140 mM NaCl, 2.5 mM CaCl2)) after surface antigen staining, and incubated with fluorochrome-conjugated Annexin V in Annexin V binding buffer for 15 min at room temperature. The cells were washed twice in Annexin V binding buffer and resuspended in Annexin V binding buffer. 7-AAD was added to the cells before analyzed by flow cytometry. […] Stained and unstained cells were analyzed on Accuri C6 Flow Cytomer (Accuri Cytometers, Inc., Ann Arbor, Mich.), FACS Canto (BD Bioscience, San Jose, Calif., USA) and Attune™ cytometer (Invitrogen, Carlsbad, Calif.). […]

[2] = system: mediastinal lymph node (MLN) cells; conditions: for percentage of Lym2 lymphocytes in MLN: saline 2.26%; for percentage of Ki-67hi B cells in Lym1: saline 3.91%; for percentage of Lym1 lymphocytes in MLN: saline 73.7%; for percentage of Ki-67hi Lym1 B cells: saline 4.29%; for percentage of Ki-67hi Lym2 B cells: saline 35.2%; for CD8 T cells within Lym1: saline 13.9%
Protocol: For the analyses of the effects of pH modifiers on lymphocyte populations and their proliferation in vivo in Example 3, the mice were sensitized, challenged with OVA and received either i.t. or i.p. treatments. The same challenge and treatment solutions as in the asthma model were used. In the first set of experiments, the mice were challenged with 60 μl of 1×OVA challenge solution without pH modifiers by i.t. injection for 2 consecutive days. One day of the second challenge, the mice received one-time i.t. treatment with saline or saline plus HCl or HOAc. The mice were sacrificed the next day by CO2 inhalation to collect lymphoid tissues. In the second set of experiments, the mice were challenged with OVA and treated with i.t. instillation of saline or saline plus HCl or HOAc or treated with i.p. injection of saline plus NaOH for a total of 3 doses as in the asthma model. On day 3 after the final challenge and treatment, mice were sacrificed by CO2 inhalation to collect lymphoid tissues.
Cells were washed 3 times with PBS then stained with Zombie viability dyes at room temperature for 20 minutes. At the end of incubation, 10% volume of FBS was added to absorb excess Zombie dyes. After washes, the cells were stained with conjugated antibodies against surface antigens on ice. As specified in some experiments, the cells were subsequently stained with fluorochrome-conjugated Avidin. For Annexin V staining, cells were washed twice with plain PBS and once with Annexin V binging buffer (10 mM HEPES, pH7.4, 140 mM NaCl, 2.5 mM CaCl2)) after surface antigen staining, and incubated with fluorochrome-conjugated Annexin V in Annexin V binding buffer for 15 min at room temperature. The cells were washed twice in Annexin V binding buffer and resuspended in Annexin V binding buffer. 7-AAD was added to the cells before analyzed by flow cytometry. For Ki-67 and Foxp3 staining, lymphocytes (after Zombie dye and surface antigen staining) or tumor cells (without surface antigen staining) were fixed and permeabilized using Foxp3 staining buffer kit, then stained with PE-conjugated anti-mouse or human Ki-67 antibodies. (Biolegend, San Diego, Calif., USA). Stained and unstained cells were analyzed on Accuri C6 Flow Cytomer (Accuri Cytometers, Inc., Ann Arbor, Mich.), FACS Canto (BD Bioscience, San Jose, Calif., USA) and Attune™ cytometer (Invitrogen, Carlsbad, Calif.). Data analyses were carried out using FlowJo X.
The DLNs are the primary location where active immune responses to local antigen exposure take place. The DLNs of the lungs are the mediastinal lymph nodes (MLNs). Two sets of experiments using the OVA sensitization and challenge models were carried out to investigate whether pH modifiers can affect lymphocyte populations and proliferation. In the first set of experiments, MLNs were collected from the mice 3 days after the first OVA challenge and 1 day after a single treatment. In the second set of experiments, MLNs were collected 7 days after the initial challenge and 3 days after the third treatments.

[3] = system: C57BL/6 mice fed high fat diet; test: High fat diet obesity model; format: in vivo; conditions: for average reduction of intestinal length vs saline: entire intestines; for intestines vs saline (gross examination): from end of stomach to anus; for sizes of fat pads vs saline: gross; for loss of body weight: i.p. every other day, four doses, 3 days after final treatments, saline about 3%; for fold reduction of fat/bodyweight ratio vs saline / average fat/bodyweight ratio: i.p. four doses; for average fat/bodyweight ratio: saline 0.135
Protocol: The obesity model was similar to those previously described. (95, 96). Female C57BL/6 mice of 4 weeks age were acclimated at CRADL for 1 week. After the acclimation, mice were switched to Gamma-irradiated high fat diet (Research Diets, New Brunswick, N.J., USA) (60% calories from fat). After 4 weeks of high fat diet, the mice were switched back to regular diet, and treated with i.p. injection of saline or saline plus HCl or HOAc. The bodyweight of each mouse was recorded before each treatment, and at the end of the experiment.
In the obesity model of Example 10, after fed with high fat diet for 4 weeks, mice were weighed to record total body weight. The mice were switched to regular diet and randomly divided into groups to receive i.p. treatments with saline or saline plus HCl, HOAc or NaOH. The mice continued to receive i.p. treatments on every other day for 3 additional doses. Four days after the final treatments, mice were sacrificed, their total body weights were measured, fat pads, and internal organs were collected, weighed, and analyzed.
Obesity was induced in C57BL/6 mice by feeding young (5 weeks old) female mice with high fat diet for 4 weeks. The mice were then switched to normal diet and randomly divided into groups to receive i.p. treatments with saline or saline plus HCl, HOAc or NaOH every other day for a total of four doses. The mice were analyzed 3 days after the final treatments.

[4] = system: inflammatory cells in the BALF; test: Asthma model: BALF cellularity and cell differentials; format: in vivo, Balb/c mice; conditions: i.t. HCl or HOAc, i.p. NaOH, every other day x3; day 3 after final challenge; saline 3.06×10^6
[5] = system: mucus secretion in the lungs; test: Asthma model: PAS staining of lung tissue; conditions: i.t. HOAc or HCl; i.p. NaOH
[6] = FBS with 10% of 87.5 mM modifier, 37° C., 3-5 hours, saline 73.4%
[7] = 1 day after single i.t. treatment
[8] = 1 day after single i.t. treatment, saline 4.5×10^7
[9] = 3 days after third treatment, saline 5.96×10^7

Cl [HCl, hydrochloric acid]
inflammatory infiltration in the lungs (H&E) [1]: diminished
viability (live cells) of Jurkat cells (Jurkat cells; [6]): 22.1%
reduction of total MLN cells vs saline [2, 7]: 12%
average number of total MLN cells [2, 8]: 4.0×10^7
reduction of total MLN cells vs saline ([2]; 3 days after third treatment): 5.5%
average number of total MLN cells [2, 9]: 5.6×10^7
percentage of Lym2 lymphocytes in MLN ([2]; first set): 2.83%
percentage of Ki-67hi Lym1 cells ([2]; first set, saline 3.31%): 2.92%
percentage of Ki-67hi B cells in Lym1 ([2]; first set): 2.79%
CD8 T cells within Lym2 ([2]; first set, saline 9.69%): 8.2%
CD4 T cells within Lym2 ([2]; first set, saline 14.2%): 13.4%
B cells within Lym1 ([2]; first set, saline 42.5%): 34.4%
percentage of Ki-67hi Lym2 cells ([2]; first set, saline 54.5%): 49.1%
B cells within Lym2 ([2]; first set, saline 62.6%): 44.8%
percentage of Ki-67hi B cells in Lym2 ([2]; first set, saline 62.6%): 51.1%
percentage of Lym1 lymphocytes in MLN ([2]; first set): 68.3%
Ki-67 mean fluorescence intensities of Ki-67hi Lym2 and Lym2 B cells vs saline ([2]; second set): much lower
percentage of Ki-67hi Lym1 cells ([2]; second set, saline 2.73%): 2.42%
percentage of Ki-67hi Lym1 B cells ([2]; second set): 3.62%
percentage of Ki-67hi Lym2 cells ([2]; second set, saline 34.9%): 34.9%
percentage of Ki-67hi Lym2 B cells ([2]; second set): 35.5%
average reduction of intestinal length vs saline [3]: about 31%
intestines vs saline (gross examination) [3]: drastically shortened
sizes of fat pads vs saline [3]: much smaller
loss of body weight [3]: about 25%
fold reduction of fat/bodyweight ratio vs saline [3]: 5 fold
average fat/bodyweight ratio [3]: 0.027
total inflammatory cells in the BALF (average) [4]: 1.07×10^6 per mouse
mucus secretion (PAS staining) in the lungs [5]: only faint PAS staining

CC(=O)O [HOAc, acetic acid]
inflammatory infiltration in the lungs (H&E) [1]: diminished
viability (live cells) of Jurkat cells (Jurkat cells; human, 8.75 mM): 34.3%
reduction of total MLN cells vs saline [2, 7]: 84%
average number of total MLN cells [2, 8]: 0.75×10^7
reduction of total MLN cells vs saline ([2]; 3 days after third treatment): 29%
average number of total MLN cells [2, 9]: 4.23×10^7
percentage of Lym2 lymphocytes in MLN ([2]; first set): 0.35%
percentage of Ki-67hi Lym1 cells ([2]; first set, saline 3.31%): 1.65%
percentage of Ki-67hi B cells in Lym1 ([2]; first set): 1.58%
CD8 T cells within Lym2 ([2]; first set, saline 9.69%): 2.7%
CD8 T cells within Lym1 ([2]; first set): 1.75%
CD4 T cells within Lym2 ([2]; first set, saline 14.2%): 3.23%
CD4 T cells within Lym1 ([2]; first set, saline 39.6%): 8.17%
B cells within Lym1 ([2]; first set, saline 42.5%): 22.2%
percentage of Ki-67hi Lym2 cells ([2]; first set, saline 54.5%): 27.2%
B cells within Lym2 ([2]; first set, saline 62.6%): 46.9%
percentage of Ki-67hi B cells in Lym2 ([2]; first set, saline 62.6%): 37.9%
percentage of Lym1 lymphocytes in MLN ([2]; first set): 32.4%
percentage of Ki-67lo cells in Lym1 ([2]; first set, saline 80.4%): 32.9%
Ki-67 mean fluorescence intensities of Ki-67hi Lym2 and Lym2 B cells vs saline ([2]; second set): much lower
increase of B cells within Lym1 vs saline ([2]; second set): 60.4%
reduction of CD4 T cells within Lym1 vs saline ([2]; second set): 19.3%
reduction of CD4 T cells within Lym2 vs saline ([2]; second set): 88%
reduction of CD8 T cells within Lym1 vs saline ([2]; second set): 46.8%
reduction of CD8 T cells within Lym2 vs saline ([2]; second set): 91.7%
percentage of Ki-67hi Lym1 cells ([2]; second set, saline 2.73%): 2.67%
CD8 T cells within Lym2 ([2]; second set, saline 4.21%): 0.35%
percentage of Ki-67hi Lym1 B cells ([2]; second set): 2.38%
CD4 T cells within Lym2 ([2]; second set, saline 6.91%): 0.8%
percentage of Lym2 in MLN ([2]; second set, saline 8.10%): 38.7%
CD8 T cells within Lym1 ([2]; second set): 7.39%
B cells within Lym1 ([2]; second set, saline 27.3%): 43.8%
percentage of Ki-67hi Lym2 cells ([2]; second set, saline 34.9%): 25.3%
percentage of Ki-67hi Lym2 B cells ([2]; second set): 24.9%
CD4 T cells within Lym1 ([2]; second set, saline 54.9%): 44.3%
B cells within Lym2 ([2]; second set, saline 84%): 93%
average reduction of intestinal length vs saline [3]: ~12%
intestines vs saline (gross examination) [3]: drastically shortened
sizes of fat pads vs saline [3]: much smaller
loss of body weight [3]: ~15%
fold reduction of fat/bodyweight ratio vs saline [3]: 3 fold
average fat/bodyweight ratio [3]: 0.045
total inflammatory cells in the BALF (average) [4]: 9.01×10^5 per mouse
mucus secretion (PAS staining) in the lungs [5]: only faint PAS staining

[Na+].[OH-] [NaOH, sodium hydroxide]
inflammatory infiltration in the lungs (H&E) [1]: prominent in the perivascular areas, but not very noticeable in the peribronchial areas
viability (live cells) of Jurkat cells (Jurkat cells; [6]): 70.4%
increase of total MLN cells vs saline ([2]; 3 days after third i.p. treatment): 32%
average number of total MLN cells [2, 9]: 7.9×10^7
Ki-67 mean fluorescence intensities of Ki-67hi Lym2 and Lym2 B cells vs saline ([2]; second set): higher
percentage of Ki-67hi Lym1 cells ([2]; second set, saline 2.73%): 3.48%
percentage of Ki-67hi Lym1 B cells ([2]; second set): 4.23%
percentage of Ki-67hi Lym2 cells ([2]; second set, saline 34.9%): 42.2%
percentage of Ki-67hi Lym2 B cells ([2]; second set): 44.7%
average reduction of intestinal length vs saline [3]: about 2%
intestines vs saline (gross examination) [3]: only slightly shortened
sizes of fat pads vs saline [3]: somewhat reduced
loss of body weight [3]: about 17%
average fat/bodyweight ratio [3]: 0.106
total inflammatory cells in the BALF (average) [4]: 2.18×10^6 per mouse
mucus secretion (PAS staining) in the lungs [5]: no reduction of mucus secretion or PAS staining
